The record followed here is US10760110B2, “Antibiotic testing and screening system” (priority 2017, dated 2020).

As a reminder, the MIC is the smallest concentration in the dilution series that meets the test's criterion for growth inhibition.

In assay [1] the test system is K. pneumoniae NVT1001 strains with aminoglycoside resistance plasmids. Nature of the assay: Etest MIC of aminoglycosides, aminoglycoside-modifying enzyme or 16S rRNA methylase (Table 13). Type of assay: cell-based, Klebsiella pneumoniae. As for the experimental part:
(§1) DNA fragments of the resistance genes along with their flanking regions were amplified from clinical plasmids via PCR with specific primer pairs. The resulting PCR fragments were digested and then cloned into the plasmid pACYC177 or pACYC184. The resulting plasmids were then transformed into K. pneumoniae strain NVT1001 via electroporation. The recombinant bacteria were plated onto LB agar plates containing kanamycin (50 mg/L) or chloramphenicol (50 mg/L), and the presence of the cloned gene was confirmed via PCR and DNA sequencing.
(§2) The MICs of antibiotics were determined using the Etest (Biodisk AB, Sweden) according to the manufacturer's instructions. The MICs from the Etest, which fall between standard two-fold dilutions, were rounded up to the next highest two-fold value. The MICs of ceftazidime and cefotaxime against K. pneumoniae NVT1001 harbouring the pACYC177 plasmid with blaOXA-48 were further determined using a broth microdilution test according to the recommendations of the CLSI,^25 and the results were interpreted according to the breakpoints established by the CLSI in 2017.^25 Meanwhile, due to the lack of CLSI breakpoints in 2016 and 2017, the results for cephalothin were interpreted according to the breakpoints established by the CLSI in 2015,^26 and the results for moxifloxacin were interpreted according to the breakpoints established by the EUCAST in 2017.^27

Assay [2] deals with K. pneumoniae NVT1001 and its ΔompK35/36 and/or ΔramR mutants. As to the kind of experiment: Etest MIC, OmpK35/36 loss and AcrAB-TolC overexpression (ΔramR) strains (Table 6). As to conditions: Klebsiella pneumoniae. Type of assay: cell-based, Klebsiella pneumoniae. In short, it runs like this: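 Etest MICs against K. pneumoniae NVT1001 and its ΔompK35/36 and/or ΔramR mutants, rounded up to the next two-fold value. For NVT1001 carrying pACYC177-blaOXA-48, ceftazidime and cefotaxime MICs by CLSI broth microdilution, interpreted with CLSI 2017 breakpoints.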

Assay [3] relates to A. baumannii KW1 strains with aminoglycoside resistance plasmids. Nature of the assay: Etest MIC of aminoglycosides, aminoglycoside-modifying enzyme or 16S rRNA methylase (Table 19). The class given is cell-based, Acinetobacter baumannii. How it is done:
(§3) DNA fragments of the resistance genes along with their flanking regions were amplified from clinical plasmids via PCR with specific primer pairs. The resulting PCR fragments were digested and then cloned into the plasmid pYMAb5 or pYMAb5Tc. The resulting plasmids were then transformed into A. baumannii KW1 via electroporation.
as §2

Assay [4] has as its system A. baumannii KW1 strains with tet resistance gene plasmids. As to the kind of experiment: Etest MIC of tetracyclines, tet resistance gene (Table 20). Type of assay: cell-based, Acinetobacter baumannii. As to conditions: for MIC: Acinetobacter baumannii. How it is done:
as §3, §2

In assay [5] the test system is K. pneumoniae NVT1001 and ΔramR strains with tet resistance gene plasmids. Nature of the assay: Etest MIC of tetracyclines, AcrAB-TolC overexpression (ΔramR) and/or tet resistance gene (Table 14). The class given is cell-based, Klebsiella pneumoniae. As to conditions: Klebsiella pneumoniae. As for the experimental part: as §1, §2
Assay [6] concerns K. pneumoniae NVT1001 ΔramRΔompK35/36 mutant and its revertants. Nature of the assay: Etest MIC, ΔramRΔompK35/36 mutant and its revertants (Table 7). As to conditions: Klebsiella pneumoniae. The class given is cell-based.
From the text: The allelic-exchange method was used to restore the wild-type gene in the K. pneumoniae NVT1001 mutants with constructed chromosome-mediated resistance mechanisms, as described by Tsai et al.^19 Briefly, a DNA fragment of the entire wild-type gene sequence along with flanking regions was amplified from K. pneumoniae NVT1001 using PCR with specific primers. The resulting PCR fragment was digested and then cloned into pUT-KB. For homologous recombination, this plasmid was transformed into E. coli S17-1 λpir^23 via electroporation and mobilized into the K. pneumoniae NVT1001 mutant via conjugation. […] After incubation in 20 mL BHI broth for 6 hours at 37° C. in the absence of kanamycin, the fully grown cultures were spread onto LB agar plates supplemented with 10% sucrose. After the double crossover occurred, the sucrose-resistant and kanamycin-susceptible colonies were selected, and the restoration of the wild-type gene was confirmed via DNA sequencing.
as §2

Where [7] appears, read: ΔramRΔ35/36, ΔramRΔompK35/36 mutant.

≈ marks a conversion by molar mass, not a printed value. Read-outs that look alike come from different tables or passages of the source.

With `NCC[C@H](O)C(=O)N[C@@H]1C[C@H](N)[C@@H](O[C@H]2O[C@H](CN)[C@@H](O)[C@H](O)[C@H]2O)[C@H](O)[C@H]1O[C@H]1O[C@H](CO)[C@@H](O)[C@H](N)[C@H]1O` [Amikacin], the susceptibility category result in assay [1] (strains with different aminoglycoside-modifying enzymes) was “susceptible”. Also, the minimum inhibitory concentration (MIC) came out at 2 µg/mL (≈ 3.42 µM) in assay [2] (WT, NVT1001, read-out: MIC); 2 µg/mL (≈ 3.42 µM) in assay [2] (Δ35, ΔompK35 mutant); 2 µg/mL (≈ 3.42 µM) in assay [2] (Δ35/36, ΔompK35/36 mutant); 2 µg/mL (≈ 3.42 µM) in assay [2] (Δ36, ΔompK36 mutant); 2 µg/mL (≈ 3.42 µM) in assay [2] (ΔramR mutant); 2 µg/mL (≈ 3.42 µM) in assay [2] (ΔramRΔ35, ΔramRΔompK35 mutant). The MIC in assay [2] (setting [7]) came out at 2 µg/mL (≈ 3.42 µM); in assay [2] (ΔramRΔ36, ΔramRΔompK36 mutant), 2 µg/mL (≈ 3.42 µM). The “effects on the MIC” value in assay [3] (production of aminoglycoside-modifying enzymes) is given as “no increase effects”.

On to `C[C@H]1c2cccc(O)c2C(=O)C2=C(O)[C@]3(O)C(=O)C(C(N)=O)=C(O)[C@@H](N(C)C)[C@@H]3[C@@H](O)[C@@H]21` [Doxycycline, doxycycline], for which the MIC in assay [2] (WT, NVT1001, read-out: MIC) was determined as 4 µg/mL (≈ 9 µM); in assay [2] (Δ35, ΔompK35 mutant) it was 4 µg/mL (≈ 9 µM); in assay [2] (Δ35/36, ΔompK35/36 mutant), 4 µg/mL (≈ 9 µM); in assay [2] (Δ36, ΔompK36 mutant), 4 µg/mL (≈ 9 µM); in assay [2] (ΔramR mutant), 64 µg/mL (≈ 144 µM); in assay [2] (ΔramRΔ35, ΔramRΔompK35 mutant), 64 µg/mL (≈ 144 µM). Besides, the MIC in assay [2] (setting [7]) worked out at 128 µg/mL (≈ 288 µM); in assay [2] (ΔramRΔ36, ΔramRΔompK36 mutant), 64 µg/mL (≈ 144 µM); in assay [4] (KW1, Tet(A) on pYMAb5), 12 µg/mL; in assay [4] (KW1, Tet(B) on pYMAb5), 32 µg/mL; in assay [4] (KW1, Tet(M) on pYMAb5), 192 µg/mL; in assay [4] (KW1, no supplemental plasmid), 0.75 µg/mL. Further, the MIC was 0.75 µg/mL in assay [4] (KW1 with shuttle vector pYMAb5); > 256 µg/mL in assay [5] (NVT1001, Tet(A) on pACYC177, read-out: MIC); > 256 µg/mL in assay [5] (NVT1001, Tet(B) on pACYC177, read-out: MIC); 16 µg/mL in assay [5] (NVT1001, Tet(C) on pACYC177, read-out: MIC); 128 µg/mL in assay [5] (NVT1001, Tet(D) on pACYC177, read-out: MIC); 32 µg/mL in assay [5] (NVT1001, Tet(M) on pACYC177, read-out: MIC). Besides, the MIC in assay [5] (NVT1001, no supplemental plasmid, read-out: MIC) was 4 µg/mL; in assay [5] (ΔramR, Tet(A) on pACYC177), > 256 µg/mL; in assay [5] (ΔramR, Tet(B) on pACYC177), > 256 µg/mL; in assay [5] (ΔramR, Tet(C) on pACYC177) it was 128 µg/mL; in assay [5] (ΔramR, Tet(D) on pACYC177) it was 256 µg/mL; in assay [5] (ΔramR, Tet(M) on pACYC177), 128 µg/mL. The MIC was determined as 64 µg/mL in assay [5] (ΔramR, no supplemental plasmid); 64 µg/mL in assay [6] (ΔramRΔompK35/36::ompK35/36 revertant); 64 µg/mL in assay [6] (ΔramRΔompK35/36::ompK35 revertant); 64 µg/mL in assay [6] (ΔramRΔompK35/36::ompK36 revertant); 4 µg/mL in assay [6] (ΔramRΔompK35/36::ramR revertant); 4 µg/mL in assay [6] (ΔramRΔompK35/36::ramR::ompK35/36 revertant). For the same molecule, the MIC in assay [6] (ΔramRΔompK35/36::ramR::ompK35 revertant) was determined as 4 µg/mL; in assay [6] (ΔramRΔompK35/36::ramR::ompK36 revertant), 4 µg/mL; in assay [6] (ΔramRΔompK35/36 mutant), 128 µg/mL. Besides, the “increase in the MIC” value in assay [4] (production of Tet(A), Tet(B) or Tet(C)) stood at 4 fold.

`CN[C@@H]1[C@H](O)[C@H](NC)[C@H]2O[C@@]3(O)C(=O)C[C@@H](C)O[C@H]3O[C@@H]2[C@H]1O` [Spectinomycin]: the “effects on the MIC / resistance” value in assay [1] (production of 16S rRNA methylase, ArmA and RmtB) is “not associated with observable effects”; in assay [3] (production of 16S rRNA methylase, ArmA) it was “not associated with increase effects”. Also, the MIC in assay [2] (WT, NVT1001, read-out: MIC) came out at 16 µg/mL (≈ 48.1 µM); in assay [2] (Δ35, ΔompK35 mutant), 16 µg/mL (≈ 48.1 µM); in assay [2] (Δ35/36, ΔompK35/36 mutant) it was 16 µg/mL (≈ 48.1 µM); in assay [2] (Δ36, ΔompK36 mutant), 16 µg/mL (≈ 48.1 µM); in assay [2] (ΔramR mutant), 16 µg/mL (≈ 48.1 µM); in assay [2] (ΔramRΔ35, ΔramRΔompK35 mutant), 16 µg/mL (≈ 48.1 µM). Further, the MIC in assay [2] (setting [7]) came out at 16 µg/mL (≈ 48.1 µM); in assay [2] (ΔramRΔ36, ΔramRΔompK36 mutant) it was 16 µg/mL (≈ 48.1 µM).
